# Assay results reported in patent US20160115540A1, “PRODRUGS AND DRUGS” (Biogen MA Inc., priority 2013, published 2016).
# Structures can show the parent of a compound that is named as a salt.
# Test system: liver
# Assay: Transcriptional profiling on Affymetrix GeneChips, single dose, naïve mice: liver
# Assay type: in vivo, C57BL/6 mice
# Conditions: for Number of differentially expressed genes identified: Liver: Naïve, Single Dose
# Method: Treated mice were sacrificed at 2, 7, or 12 hours. Tissues (liver, spleen, kidney, jejunum, cortex, hippocampus, striatum and whole blood) were collected and analyzed by transcriptional profiling on mouse Affymetrix GeneChips.
# Tissues (liver, spleen, kidney, jejunum, cortex, hippocampus, striatum and whole blood) were collected and analyzed by transcriptional profiling on mouse Affymetrix GeneChips.
# Animals were exposed to CO2 and whole blood collected via cardiac puncture. Two 100 μl aliquots of whole blood were collected in 1.5 mL microcentrifuge tubes and snap frozen in liquid nitrogen. Peripheral (liver, spleen, kidney and jejunum) and CNS brain (cerebellum, hippocampus, striatum and cortex) tissues were harvested and snap frozen in liquid nitrogen, with special care taken to collect tissues of similar size and from the same location. All samples were stored at −80° C. until RNA extraction was conducted.
# For RNA preparation, frozen tissues were placed in 2 mL RNAse-free 96-well blocks with 1.5 mL QIAzol Lysis Reagent (QIAgen) and a 3.2 mm stainless steel bead (BioSpec Products, Bartlesville, Okla.). Tissues were disrupted for four cycles of 45 seconds in a Mini-Beadbeater (Biospec Products). RNA was extracted in chloroform and the aqueous phase was mixed with an equal volume of 70% ethanol. Extracted RNA was applied to RNeasy 96 plates and purified by the spin method according to the manufacturer's protocol (RNeasy 96 Universal Tissue Protocol, QIAgen, Hilden Germany).
# Automated sample amplifications and biotin labelings were carried out using the NuGEN Ovation RNA Amplification system V2 (Cat #3100), Ovation WB reagent (Cat #1300) and Encore Biotin module (Cat #4200) (NuGEN Technologies, Inc, San Carlos, Calif.) according to manufacturer's recommendations using an Arrayplex automated liquid handler (Beckman Coulter, Indianapolis, Ind.). Two micrograms of biotin labeled sscDNA probe were hybridized to Affymetrix GeneChip Affymetrix HT_MG-430_PM plate arrays with modified conditions as described in Allaire et al. Washing and staining of the hybridized arrays were completed as described in the GeneChip Expression analysis technical manual for HT plate arrays using the Genechip® Array Station (Affymetrix, Santa Clara, Calif.) with modifications as described in Allaire et al. The processed GeneChip® plate arrays were scanned using GeneTitan scanner (Affymetrix, Santa Clara, Calif.).
# Affymetrix scans were subject to quality control (QC) measures. These tests included a visual inspection of the distribution of raw signal intensities and an assessment of RNA degradation, relative log expression (RLE), and normalized unsealed standard error (NUSE). All sample scans that passed these QC metrics were included in the analysis.
# All CEL files were subjected to GC-content-based Robust Multi-array Average (GCRMA) normalization (version 2.20.0) (Irizarry R A, et al. Nucleic Acids Res 2003; 31:e15; Li C, et al. Genome Biol 2001; 2:[…]0032). Expression levels were log (base 2) transformed.
# All calculations and analyses were carried out using R (version 2.11.1) and Bioconductor computational tools (Gentleman R. Springer Science+Business Media 2005).
# [1] = liver, 100 mg/kg, 2 hr, vs matched vehicle controls
# [2] = liver, 100 mg/kg, 7 hr, vs matched vehicle controls
smiles,measurement,setting,value
"COC(=O)/C=C/C(=O)OC [DMF, dimethyl fumarate]","FC Dnajc12 (DnaJ (Hsp40) homolog, subfamily C, member 12)","100DMF-vs-100MMF, 12 h, probe 1417441_PM_at, naïve single dose, tissue section before SPLEEN",−2.49
same,FC Cyb561 (cytochrome b-561),"100DMF-vs-100MMF, 12 h, probe 1417507_PM_at, naïve single dose, tissue section before SPLEEN",−2.02
same,"FC Crybb3 (crystallin, beta B3)","100DMF-vs-100MMF, 12 h, probe 1419005_PM_at, naïve single dose, tissue section before SPLEEN",−1.69
same,FC 9130221J18Rik (RIKEN cDNA 9130221J18 gene),"100DMF-vs-100MMF, 12 h, probe 1446368_PM_at, naïve single dose, tissue section before SPLEEN",−1.93
same,FC Tnfrsf19 (1448147_PM_at),"LIVER, 100DMF-vs-100MMF, 7 h",1.73
same,FC Isyna1 (1415977_PM_at),"LIVER, 100DMF-vs-100MMF, 12 h",−1.76
same,FC 1447411_PM_at (no gene symbol),"LIVER, 100DMF-vs-Veh, 2 h",2.57
same,FC 5430435G22Rik (1435830_PM_a_at),"LIVER, 100DMF-vs-Veh, 2 h",1.79
same,FC 9130221J17Rik (1443159_PM_at),"LIVER, 100DMF-vs-Veh, 2 h",1.54
same,FC Abcc1 (1452233_PM_at),"LIVER, 100DMF-vs-Veh, 2 h",1.75
same,FC Akr1b8 (1448894_PM_at),"LIVER, 100DMF-vs-Veh, 2 h",2.18
same,FC Clec4n (1419627_PM_s_at),"LIVER, 100DMF-vs-Veh, 2 h",2.34
same,FC Clec4d (1420804_PM_s_at),"LIVER, 100DMF-vs-Veh, 2 h",2.30
same,FC Figf (1438953_PM_at),"LIVER, 100DMF-vs-Veh, 2 h",2.23
same,FC Figf (1438954_PM_x_at),"LIVER, 100DMF-vs-Veh, 2 h",1.90
same,FC Figf (1449528_PM_at),"LIVER, 100DMF-vs-Veh, 2 h",1.66
same,FC Hmox1 1448239_PM_at,"LIVER, 100DMF-vs-Veh, 2 h",2.37
same,FC Pgd (1436771_PM_x_at),"LIVER, 100DMF-vs-Veh, 2 h",1.59
same,FC Pgd (1437380_PM_x_at),"LIVER, 100DMF-vs-Veh, 2 h",1.61
same,FC Ppfibp2 (1417801_PM_a_at),"LIVER, 100DMF-vs-Veh, 2 h",2.38
same,FC Srxn1 (1419942_PM_at),"LIVER, 100DMF-vs-Veh, 2 h",1.69
same,FC Srxn1 (1426875_PM_s_at),"LIVER, 100DMF-vs-Veh, 2 h",1.64
same,FC Srxn1 (1451680_PM_at),"LIVER, 100DMF-vs-Veh, 2 h",1.59
same,FC Adora1 (1435495_PM_at),"LIVER, 100DMF-vs-Veh, 7 h",1.50
same,FC Akr1b8 (1448894_PM_at),"LIVER, 100DMF-vs-Veh, 7 h",1.58
same,FC Bmp6 (1450759_PM_at),"LIVER, 100DMF-vs-Veh, 7 h",1.57
same,FC Clec4n (1419627_PM_s_at),"LIVER, 100DMF-vs-Veh, 7 h",2.01
same,FC Nqo1 (1423627_PM_at),"LIVER, 100DMF-vs-Veh, 7 h",1.81
same,FC Gstm4 (1424835_PM_at),"LIVER, 100DMF-vs-Veh, 12 h",1.54
same,"Number of genes, DMF Only / MMF Only",Liver,2
same,Number of differentially expressed genes identified: Liver,"100 mpk DMF-vs-100 mpk MMF, 2 h after last dosing",0
same,Number of differentially expressed genes identified: Liver,"100 mpk DMF-vs-100 mpk MMF, 7 h after last dosing",1
same,Number of differentially expressed genes identified: Liver,"100 mpk DMF-vs-100 mpk MMF, 12 h after last dosing",5
same,Number of differentially expressed genes identified: Liver,"100 mpk, vs Vehicle, 2 h after last dosing",18
same,Number of differentially expressed genes identified: Liver,"100 mpk, vs Vehicle, 7 h after last dosing",5
same,Number of differentially expressed genes identified: Liver,"100 mpk, vs Vehicle, 12 h after last dosing",1
same,Murine Liver DEGs: Abcc1 (1452233_PM_at),[1],1.75
same,Murine Liver DEGs: Akr1b8 (1448894_PM_at),[1],2.18
same,Murine Liver DEGs: Clec4n (1419627_PM_s_at),[1],2.34
same,Murine Liver DEGs: Clec4d (1420804_PM_s_at),[1],2.30
same,Murine Liver DEGs: Figf (1438953_PM_at),[1],2.23
same,Murine Liver DEGs: Hmox1 (1448239_PM_at),[1],2.37
same,Murine Liver DEGs: Pgd (1436771_PM_x_at),[1],1.59
same,Murine Liver DEGs: Ppfibp2 (1417801_PM_a_at),[1],2.38
same,Murine Liver DEGs: Srxn1 (1419942_PM_at),[1],1.69
same,Murine Liver DEGs: Adora1 (1435495_PM_at),[2],1.50
same,Murine Liver DEGs: Akr1b8 (1448894_PM_at),[2],1.58
same,Murine Liver DEGs: Bmp6 (1450759_PM_at),[2],1.57
same,Murine Liver DEGs: Clec4n (1419627_PM_s_at),[2],2.01
same,Murine Liver DEGs: Nqo1 (1423627_PM_at),[2],1.81
same,Murine Liver DEGs: Gstm4 (1424835_PM_at),"liver, 100 mg/kg, 12 hr, vs matched vehicle controls",1.12
same,Abcc1 (probe set 1452233_PM_at) differential expression,"liver, 2 hr",1.75
same,Akr1b8 (probe set 1448894_PM_at) differential expression,"liver, 2 hr",2.18
same,Clec4n (probe set 1419627_PM_s_at) differential expression,"liver, 2 hr",2.34
same,Clec4d (probe set 1420804_PM_s_at) differential expression,"liver, 2 hr",2.30
same,Figf (probe set 1438953_PM_at) differential expression,"liver, 2 hr",2.23
same,Hmox1 (probe set 1448239_PM_at) differential expression,"liver, 2 hr",2.37
same,Pgd (probe set 1436771_PM_x_at) differential expression,"liver, 2 hr",1.59
same,Ppfibp2 (probe set 1417801_PM_a_at) differential expression,"liver, 2 hr",2.38
same,Srxn1 (probe set 1419942_PM_at) differential expression,"liver, 2 hr",1.69
same,Adora1 (probe set 1435495_PM_at) differential expression,"liver, 7 hr",1.50
same,Akr1b8 (probe set 1448894_PM_at) differential expression,"liver, 7 hr",1.58
same,Bmp6 (probe set 1450759_PM_at) differential expression,"liver, 7 hr",1.57
same,Clec4n (probe set 1419627_PM_s_at) differential expression,"liver, 7 hr",2.01
same,Nqo1 (probe set 1423627_PM_at) differential expression,"liver, 7 hr",1.81
same,Gstm4 (probe set 1424835_PM_at) differential expression,"liver, 12 hr",1.12
